Key:
anesthetized rats = assay: Acute cardiovascular and renal effects of an intravenous bolus in anesthetized rats (Example 1); type: in vivo, male Sprague-Dawley rats; conditions: 33.5 μmoles/kg intravenous bolus
Description: Animals. This study employed male Sprague-Dawley rats (Charles River; Wilmington, Mass.) that were approximately 16 weeks old. The Institutional Animal Care and Use Committee approved all procedures.
The rats were anesthetized with Inactin (90 mg/kg, i.p.) and placed on an isothermal pad, and body temperature was monitored with a rectal probe thermometer and maintained at 37° C. with a heat lamp. […] A PE-50 cannula was inserted into the jugular vein, and an infusion of 0.9% saline at 25 μl/min was initiated. A PE-10 tubing was placed in the left ureter for urine collection. […] The dose was selected based on preliminary experiments with 8-aminoguanosine. […] Each group of rats (n of at least 6) received only one treatment. Ten minutes after the test agents were administered, urine was collected for another 30 minutes (Period 2: […] into the protocol).
Statistics. Absolute values are presented as the mean±SEM. Fold-increases were calculated as follows: Period 3 value÷Period 1 value. Statistical analyses were performed using analysis of variance (ANOVA) followed by Fisher's Least Significant Difference (LSD) test if the overall effects or interactions in the ANOVA were significant. P<0.05 was considered statistically significant.

MCT-induced PH = assay: Monocrotaline (MCT)-induced pulmonary hypertension; type: in vivo, male Sprague Dawley rats; conditions: 30 mg/kg/day
Description: Because PNPase metabolizes guanosine to guanine, the mechanism by which PNPase activity is associated with PH likely includes guanosine protection against PH. A total of 24 male Sprague Dawley rats were used to determine whether administration of guanosine attenuates the development of PH in animals with MCT-induced PH. Animals were randomly assigned for intraperitoneal (i.p.) injection with either a mixture of 1 ml of 1N HCl neutralized with 1.0 N NaOH and diluted with distillated water (10 ml/kg, Control group; n=8) or MCT (60 mg/kg, […]). The MCT (Sigma, St Louis, Mo.) was dissolved in 1N HCl at 100 mg/ml, which was neutralized with 1 N NaOH and diluted with distillated water to 6 mg/ml. Next, a subset of MCT rats (n=8) were assigned to receive guanosine (30 mg/kg/day). The rats were randomly assigned to the Control, MCT, or MCT+guanosine group.
In this PH model, three weeks after MCT administration, mortality rapidly increases (Ren et al., J Pharmacol Exp Ther., 325:920-926, 2008; Seoane et al., Southern Medical Journal, 94:635-639, 2001). Therefore, animals were monitored for four weeks, and acute measurements of right ventricular pressure and morphometric analyses were performed. Twenty-eight days after administration of MCT, the animals were anesthetized and instrumented for right ventricular peak systolic pressure (RVPSP) measurement. Briefly, a PE-240 polyethylene catheter was inserted into the trachea to facilitate breathing. An angled Milliar Micro-tip pressure transducer catheter SPR-513 (Millar Instruments) was inserted into the right jugular vein and advanced into the right ventricle (RV) for RVPSP measurement. After 30-minutes of stabilization, RVPSP was recorded over 20 minutes. The animals were euthanized by anesthetic overdose, and the heart and lungs were collected for morphometric analyses.

[1] = test system: RBCs from SCD patients (HbSS); assay: Hypoxia-induced sickling of RBCs from SCD patients; type: cell-based, human; conditions: 2 μmol/L; 1.5 hours pre-incubation, then hypoxia for 3 hours
Description: In addition to causing PH in SCD patients and HIV-infected patients, the contribution of PNPase to RBC sickling in SCD patients was assessed. Fresh RBCs were obtained from two adult SCD patients (HbSS); the RBCs were diluted in F-10 HAM buffer to a final hematocrit of 4%. Next, glucose was added for a final concentration of 5.5 mmol/L, and the samples were incubated at room air/temperature in 12-well plates. The RBCs were then treated with either vehicle, 8-aminoguanosine (2 μmol/L), inosine (2 μmol/L), or an 8-aminoguanosine and inosine combination. After 1.5 hours, the RBCs were placed in a hypoxic glove box and maintained under hypoxia (5% 02) for 3 hours, while undergoing mild agitation. At the end of incubation, to prevent reoxygenation-derived morphological changes, the RBCs were fixed under hypoxic conditions in the hypoxic glove box. The samples were assayed for percent sickling.

[2] = Period 3 compared with Period 1

Nc1nc2c(nc(O)n2[C@H]2C[C@H](O)[C@@H](CO)O2)c(=O)[nH]1 [8-hydroxy-2-deoxyguanosine]
efficacy grouping (diuretic/natriuretic) (anesthetized rats): little or no efficacy

Nc1nc2[nH]c(O)nc2c(=O)[nH]1 [8-hydroxyguanine, 8-Hydroxyguanine]
efficacy grouping (diuretic/natriuretic) (anesthetized rats): moderate efficacy
sodium excretion increase (anesthetized rats; [2]): 8.6 fold

Nc1nc2c(nc(O)n2[C@@H]2O[C@H](CO)[C@@H](O)[C@H]2O)c(=O)[nH]1 [8-hydroxyguanosine, 8-Hydroxyguanosine]
efficacy grouping (diuretic/natriuretic) (anesthetized rats): moderate efficacy
sodium excretion increase (anesthetized rats; [2]): 7.1 fold

Nc1nc2[nH]c([N+](=O)[O-])nc2c(=O)[nH]1 [8-nitroguanine, 8-Nitroguanine]
efficacy grouping (diuretic/natriuretic) (anesthetized rats): moderate efficacy
sodium excretion increase (anesthetized rats; [2]): 7.8 fold

Nc1nc2c(nc([N+](=O)[O-])n2[C@@H]2O[C@H](CO)[C@@H](O)[C@H]2O)c(=O)[nH]1 [8-nitroguanosine]
efficacy grouping (diuretic/natriuretic) (anesthetized rats): little or no efficacy

NC(N)=NC(=O)c1nc(Cl)c(N)nc1N [amiloride, Amiloride, reference compound]
effect on heart rate (HR) (anesthetized rats): modestly decreased
effect on mean arterial blood pressure (MABP) (anesthetized rats): modestly decreased
effect on mesenteric blood flow (MBF) (anesthetized rats): modestly decreased
effect on renal blood flow (RBF) (anesthetized rats): modestly decreased
urine volume increase (anesthetized rats; Period 3 (85-115 min) compared with Period 1 (0-30 min)): 4.5 fold
potassium excretion decrease (anesthetized rats; [2]): 96.5%
sodium excretion increase (anesthetized rats; [2]): 13.6 fold
effect on glucose excretion (anesthetized rats; in words): did not change

Nc1nc2[nH]cnc2c(=O)[nH]1 [guanine, Guanine, reference compound]
efficacy grouping (diuretic/natriuretic) (anesthetized rats): moderate efficacy
sodium excretion increase (anesthetized rats; [2]): 9.4 fold

Nc1nc2c(ncn2[C@@H]2O[C@H](CO)[C@@H](O)[C@H]2O)c(=O)[nH]1 [guanosine, Guanosine]
RV dysfunction (RV EDP, contractility index) (MCT-induced PH; 28 days after MCT): prevented
RV hypertrophy (RV mass) (MCT-induced PH; 28 days after MCT): attenuated
inflammatory cell infiltration into the lungs (ED1+ cells) (MCT-induced PH; 28 days after MCT): reduced
pulmonary vascular remodeling (MCT-induced PH; 28 days after MCT): attenuated
pulmonary hypertension (RVPSP) (MCT-induced PH; 28 days after MCT 60 mg/kg): attenuated
efficacy grouping (diuretic/natriuretic) (anesthetized rats): little or no efficacy

O=c1[nH]cnc2c1ncn2[C@@H]1O[C@H](CO)[C@@H](O)[C@H]1O [inosine, Inosine]
hypoxia-induced sickling of RBCs [1]: significantly reduced

From patent publication US11103526B2, “Methods for treatment using small molecule potassium-sparing diuretics and natriuretics” (University of Pittsburgh—Of the Commonwealth System of …, priority 2016, dated 2021)
